# Data published in US20230203043A1, “NOVEL IMIDAZOPYRAZINE DERIVATIVES” (Hoffmann-La Roche Inc., priority 2020, published 2023).
# Structures can show the parent of a compound that is named as a salt.
# Test system: Acinetobacter baumannii ATCC17961
# Assay: Antimicrobial susceptibility testing: 90% growth inhibitory concentration (IC90) determination in Iso-Sensitest broth, OD600 growth
# Assay type: cell-based
# Settings: Acinetobacter baumannii, ATCC17961, 16 h, read-out: A. baumannii ATCC 17961 IC90 (uM), strain ATCC 17961, OD600 growth over 16 h
# In short: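 Growth inhibition is calculated during the logarithmic phase from OD600 readings taken every 20 minutes across 16 h at 35±2° C. Bacteria at ~5×10^(5) CFU/ml face twofold dilution series (e.g. 50 to 0.097 μM final).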
row,Structure (SMILES),IC90
1,"CCc1cc(Nc2nccn3c(-c4cn(CC(F)F)nc4C(F)(F)F)cnc23)ccc1C(=O)NCC(=O)NCCN(C)C [Example 668, 4-[[3-[1-(2,2-difluoroethyl)-3-(trifluoromethyl)pyrazol-4-yl]imidazo[1,2-a]pyrazin-8-yl]amino]-N-[2-[2-(dimethylamino)ethylamino]-2-oxo-ethyl]-2-ethyl-benzamide formate]",0.294 µM
2,"CCc1cc(Nc2nccn3c(-c4cn(C5CC(F)(F)C5)nc4C(F)(F)F)cnc23)ccc1C(=O)NCCOCCCN [Example 670, N-(2-(3-aminopropoxy)ethyl)-4-((3-(1-(3,3-difluorocyclobutyl)-3-(trifluoromethyl)-1H-pyrazol-4-yl)imidazo[1,2-a]pyrazin-8-yl)amino)-2-ethylbenzamide formate]",0.304 µM
3,"CCc1cc(Nc2nccn3c(-c4cn(C5CCC5)nc4C(F)(F)F)cnc23)ccc1C(=O)NCC1CC1N (stereo not drawn) [Example 671, N-((2-aminocyclopropyl)methyl)-4-((3-(1-cyclobutyl-3-(trifluoromethyl)-1H-pyrazol-4-yl)imidazo[1,2-a]pyrazin-8-yl)amino)-2-ethylbenzamide formate]",0.309 µM
4,"CCc1cc(Nc2nccn3c(-c4cn(CC#N)nc4C(F)(F)F)cnc23)ccc1C(=O)NCC(=O)NC1CC(N)C1 (stereo not drawn) [Example 675, N-[2-[(3-aminocyclobutyl)amino]-2-oxo-ethyl]-4-[[3-[1-(cyanomethyl)-3-(trifluoromethyl)pyrazol-4-yl]imidazo[1,2-a]pyrazin-8-yl]amino]-2-ethyl-benzamide formate]",0.315 µM
5,"CCc1cc(Nc2nccn3c(-c4c[nH]nc4C(F)(F)F)cnc23)ccc1C(=O)NCCCNC(=O)[C@@H](C)N [Example 677, (R)-N-(3-(2-aminopropanamido)propyl)-2-ethyl-4-((3-(3-(trifluoromethyl)-1H-pyrazol-4-yl)imidazo [1,2-a]pyrazin-8-yl)amino)benzamide formate]",0.317 µM
6,"CCc1cc(Nc2nccn3c(-c4cn(CC#N)nc4C(F)(F)F)cnc23)ccc1C(=O)N[C@H](C)C(=O)N1CCNCC1 [Example 678, 4-[[3-[1-(cyanomethyl)-3-(trifluoromethyl)pyrazol-4-yl]imidazo[1,2-a]pyrazin-8-yl]amino]-2-ethyl-N-[(1R)-1-methyl-2-oxo-2-piperazin-1-yl-ethyl]benzamide formate]",0.321 µM
7,"CCc1cc(Nc2nccn3c(-c4cn(CC#N)nc4C(F)(F)F)cnc23)ccc1C(=O)NCC(=O)N1CC[C@H](N)C1 [Example 681, N-[2-[(3S)-3-aminopyrrolidin-1-yl]-2-oxo-ethyl]-4-[[3-[1-(cyanomethyl)-3-(trifluoromethyl)pyrazol-4-yl]imidazo[1,2-a]pyrazin-8-yl]amino]-2-ethyl-benzamide formate]",0.327 µM
8,"Cc1cc(Nc2nccn3c(-c4cn(CC#N)nc4C(F)(F)F)cnc23)cc(F)c1C(=O)N1CCN(C(=O)[C@H](C)N)CC1 [Example 682, 2-(4-(8-((4-(4-(L-alanyl)piperazine-1-carbonyl)-3-fluoro-5-methylphenyl)amino)imidazo[1,2-a]pyrazin-3-yl)-3-(trifluoromethyl)-1H-pyrazol-1-yl) acetonitrile formate]",0.329 µM
9,"C[C@@H](NC(=O)c1ccc(Nc2nccn3c(-c4cn(CC#N)nc4C(F)(F)F)cnc23)cc1Cl)C(=O)NC1CC(N)C1 (stereo partly drawn) [Example 683, N-[(1R)-2-[(3-aminocyclobutyl)amino]-1-methyl-2-oxo-ethyl]-2-chloro-4-[[3-[1-(cyanomethyl)-3-(trifluoromethyl)pyrazol-4-yl]imidazo[1,2-a]pyrazin-8-yl]amino]benzamide formate]",0.336 µM
10,"Cc1cc(Nc2nccn3c(-c4cn(CC#N)nc4C(F)(F)F)cnc23)cc(F)c1C(=O)N[C@H](C)CNC(=O)CN [Example 689, (R)-N-(1-(2-aminoacetamido)propan-2-yl)-4-((3-(1-(cyanomethyl)-3-(trifluoromethyl)-1H-pyrazol-4-yl)imidazo[1,2-a]pyrazin-8-yl)amino)-2-fluoro-6-methylbenzamide formate]",0.351 µM
11,"Cc1cc(Nc2nccn3c(-c4cn(CC#N)nc4C(F)(F)F)cnc23)ccc1C(=O)N[C@H](C)C(=O)N1CCC(N)CC1 [Example 690, N-[(1R)-2-(4-amino-1-piperidyl)-1-methyl-2-oxo-ethyl]-4-[[3-[1-(cyanomethyl)-3-(trifluoromethyl)pyrazol-4-yl]imidazo[1,2-a]pyrazin-8-yl]amino]-2-methyl-benzamide formate]",0.351 µM

# Same assay, conditions: Acinetobacter baumannii, ATCC17961, 16 h, strain ATCC 17961, OD600 growth over 16 h, read-out: A. baumannii ATCC 17961 IC90
row,IC90,Structure (SMILES)
1,0.294 µM,"CCc1cc(Nc2nccn3c(-c4cn(CC(F)F)nc4C(F)(F)F)cnc23)ccc1C(=O)NCCNC(=O)[C@@H]1C[C@@H](O)CN1 [Example 667, (2S,4R)-N-(2-(4-((3-(1-(2,2-difluoroethyl)-3-(trifluoromethyl)-1H-pyrazol-4-yl)imidazo[1,2-a]pyrazin-8-yl)amino)-2-ethylbenzamido)ethyl)-4-hydroxypyrrolidine-2-carboxamide]"
2,0.3 µM,"Cc1cc(Nc2nccn3c(-c4cn(CC(F)F)nc4C(F)(F)F)cnc23)cc(F)c1C(=O)N[C@H](C)CNC(=O)[C@H]1C[C@@H](N)C1 [Example 669, N-((R)-1-((1s,3S)-3-aminocyclobutane-1-carboxamido)propan-2-yl)-4-((3-(1-(2,2-difluoroethyl)-3-(trifluoromethyl)-1H-pyrazol-4-yl)imidazo[1,2-a]pyrazin-8-yl)amino)-2-fluoro-6-methylbenzamide]"
3,0.313 µM,"CCc1cc(Nc2nccn3c(-c4c[nH]nc4C(F)(F)F)cnc23)ccc1C(=O)NCCOCCN1CCCC1 [Example 672, 2-ethyl-N-(2-(2-(pyrrolidin-1-yl)ethoxy)ethyl)-4-((3-(3-(trifluoromethyl)-1H-pyrazol-4-yl)imidazo[1,2-a]pyrazin-8-yl)amino)benzamide]"
4,0.314 µM,"Cc1cc(Nc2nccn3c(-c4cn(CC(F)F)nc4C(F)(F)F)cnc23)cc(F)c1C(=O)N[C@H](C)CNC(=O)CN [Example 673, (R)-N-(1-(2-aminoacetamido)propan-2-yl)-4-((3-(1-(2,2-difluoroethyl)-3-(trifluoromethyl)-1H-pyrazol-4-yl)imidazo[1,2-a]pyrazin-8-yl)amino)-2-fluoro-6-methylbenzamide]"
5,0.315 µM,"C[C@@H](NC(=O)c1ccc(Nc2nccn3c(-c4cn(CC#N)nc4C(F)(F)F)cnc23)cc1Cl)C(=O)N1CC[C@@H](N)C1 [Example 674, N-[(1R)-2-[(3R)-3-aminopyrrolidin-1-yl]-1-methyl-2-oxo-ethyl]-2-chloro-4-[[3-[1-(cyanomethyl)-3-(trifluoromethyl)pyrazol-4-yl]imidazo[1,2-a]pyrazin-8-yl]amino] benzamide formate]"
6,0.316 µM,"Cc1cc(Nc2nccn3c(-c4cn(CC#N)nc4C(F)(F)F)cnc23)cc(F)c1C(=O)N1CCN(C(=O)[C@H]2[C@@H]3CNC[C@@H]32)CC1 [Example 676, 2-(4-(8-((4-(4-((1R,5S,6r)-3-azabicyclo[3.1.0]hexane-6-carbonyl)piperazine-1-carbonyl)-3-fluoro-5-methylphenyl)amino)imidazo[1,2-a]pyrazin-3-yl)-3-(trifluoromethyl)-1H-pyrazol-1-yl) acetonitrile formate]"
7,0.322 µM,"CCc1cc(Nc2nccn3c(-c4cn(CC(F)F)nc4C(F)(F)F)cnc23)ccc1C(=O)NCC(=O)N1CCNCC1 [Example 679, 4-[[3-[1-(2,2-difluoroethyl)-3-(trifluoromethyl)pyrazol-4-yl]imidazo[1,2-a]pyrazin-8-yl]amino]-2-ethyl-N-(2-oxo-2-piperazin-1-yl-ethyl) benzamide formate]"
8,0.326 µM,"C=CCn1cc(-c2cnc3c(Nc4cc(C)c(C(=O)N[C@H](C)CN)c(F)c4)nccn23)c(C(F)(F)F)n1 [Example 680, (R)-4-((3-(1-allyl-3-(trifluoromethyl)-1H-pyrazol-4-yl)imidazo[1,2-a]pyrazin-8-yl)amino)-N-(1-aminopropan-2-yl)-2-fluoro-6-methylbenzamide]"
9,0.34 µM,"CCc1cc(Nc2nccn3c(-c4cn(CC(F)F)nc4C(F)(F)F)cnc23)ccc1C(=O)N[C@H](C)CNC(=O)[C@@H]1C[C@@H](O)CN1 [Example 684, (2S,4R)-N-((R)-2-(4-((3-(1-(2,2-difluoroethyl)-3-(trifluoromethyl)-1H-pyrazol-4-yl)imidazo[1,2-a]pyrazin-8-yl)amino)-2-ethylbenzamido)propyl)-4-hydroxypyrrolidine-2-carboxamide]"
10,0.34 µM,"CCc1cc(Nc2nccn3c(-c4cn(CC#N)nc4C(F)(F)F)cnc23)ccc1C(=O)NCCCNC(=O)N1CC[C@@H](N)C1 [Example 685, (R)-3-amino-N-(3-(4-((3-(1-(cyanomethyl)-3-(trifluoromethyl)-1H-pyrazol-4-yl)imidazo[1,2-a]pyrazin-8-yl)amino)-2-ethylbenzamido)propyl) pyrrolidine-1-carboxamide formate]"
11,0.343 µM,"Cc1cc(Nc2nccn3c(-c4cn(CC#N)nc4C(F)(F)F)cnc23)ccc1C(=O)NCC(=O)N1CC[C@@H](N)C1 [Example 686, N-[2-[(3R)-3-aminopyrrolidin-1-yl]-2-oxo-ethyl]-4-[[3-[1-(cyanomethyl)-3-(trifluoromethyl)pyrazol-4-yl]imidazo[1,2-a]pyrazin-8-yl]amino]-2-methyl-benzamide]"
12,0.345 µM,"CCc1cc(Nc2nccn3c(-c4cn(CC(F)F)nc4C(F)(F)F)cnc23)ccc1C(=O)NCC(=O)N1CC[C@@H](N)C1 [Example 687, N-[2-[(3R)-3-aminopyrrolidin-1-yl]-2-oxo-ethyl]-4-[[3-[1-(2,2-difluoroethyl)-3-(trifluoromethyl)pyrazol-4-yl]imidazo[1,2-a]pyrazin-8-yl]amino]-2-ethyl-benzamideformate]"
13,0.349 µM,"O=C(c1ccc(Nc2nccn3c(-c4c[nH]nc4C(F)(F)F)cnc23)cc1Cl)N1CC2(C1)CN(C(=O)[C@@H]1CCCN1)C2 [Example 688, (S)-(2-chloro-4-((3-(3-(trifluoromethyl)-1H-pyrazol-4-yl)imidazo[1,2-a]pyrazin-8-yl)amino)phenyl)(6-prolyl-2,6-diazaspiro[3.3]heptan-2-yl)methanone]"
